Test [1] concerns RAW264.7 macrophages. Kind of test: ELISA of cytokines in cell culture media. The test is classed as cell-based, mouse. The note with it: pretreated 30 min, 100 ng/ml LPS 24 h; FIG. 5A/5B. The method, then: RANTES (RayBiotech), IL-1β and IL-6 (eBioscience, San Diego, CA, USA) concentrations in cell culture media and mouse serum were measured using ELISA kits according to the manufacturer's instructions. The plates were measured at […] using an Epoch microplate spectrophotometer (BioTek Instruments, Winooski, VT, USA). The concentrations of RANTES, IL-1β and IL-6 in the samples were determined by standard curves.
For identifying the potential signaling pathways which regulate the secretion of IL-6 and RANTES induced by LPS stimulation, RAW264.7 macrophages were pretreated with various kinase inhibitors for 30 min and then stimulated with/without 100 ng/ml LPS for 24 h; the cell culture media was harvested for ELISA assay. […] (FIG. 6A). To investigate whether FJU-C28 could mediate the transcriptional activity of NF-κB (p65), the translocation of NF-κB p65 was examined in LPS-stimulated macrophages.

In test [2] the test system is RAW264.7 macrophages. Kind of test: Western blotting of LPS-stimulated macrophage lysates. The format is cell-based, mouse. The note with it: LPS-induced RAW264.7; FIG. 6D. An excerpt: In brief, cell lysate was separated by 10% SDS-PAGE and transferred to a PVDF membrane (Hybond™-P, Amersham, Piscataway, NJ, USA). The blots were probed with anti-p38 (Catalogue Number: 8690P), anti-p-p38 (Thr180/Tyr182; Catalogue Number: 4511P), anti-ERK44/42 (Catalogue Number: 4695P), anti-p-ERK44/42 (Thr202/Tyr204; Catalogue Number: 4370P), anti-JNK (Catalogue Number: 9258P), anti-p-JNK (Thr183/Tyr185; Catalogue Number: 4668P), anti-p65 (Catalogue Number: 8242S), anti-STAT3 (Catalogue Number: 12640S), anti-p-STAT3 (Tyr705; Catalogue Number: 9145S) and anti-RANTES (Catalogue Number: 2989S) antibodies were provided by Cell Signaling Technology, Inc. (Danvers, MA, USA). Anti-Lamin A/C (Catalogue Number: 101127) antibodies were obtained from GeneTex, Inc. (San Antonio, TX, USA). Anti-β-Actin (Catalogue Number: SC-47778) and anti-COX2 (Catalogue Number: SC-1746) antibody was obtained from Santa Cruz Biotechnology, Inc. (Dallas, Texas, USA). The anti-iNOS (Catalog Number: 610329) antibody was obtained from BD transduction Lab. (San Jose, CA, USA). Bound antibodies were visualized by […] staining (Western Lighting Plus ECL; PerkinElmer, Wellesley, MA, USA) with autoradiography using FUJI Medical X-ray film (Fuji Corporation, Kofu, Yamanashi, Japan) or a MultiGel-21 multifunctional imaging system (TOPBIO, New Taipei, Taiwan). The intensity of the western blot bands was quantified by ImageJ software. The quantitative immunoblot data were normalized to the internal control protein and are expressed as the relative ratio of the treatment group to the control. The data represent the mean±S.D. of at least three independent experiments.

As to `Cc1ccc(S(=O)(=O)/C=C/C#N)cc1` [BAY11-7082], in the test on RAW264.7 macrophages [1], the “LPS-induced expression of IL-6 (ELISA), kinase inhibitors” value is on record as “suppressed” and the “LPS-induced expression of RANTES (ELISA), kinase inhibitors” value was “suppressed”.
As for `CCOC(=O)C1=CCCC[C@H]1S(=O)(=O)Nc1ccc(F)cc1Cl` [CLI-095], in the test with RAW264.7 macrophages [1], the “LPS-induced expression of IL-6 (ELISA), kinase inhibitors” value is given as “suppressed” and the “LPS-induced expression of RANTES (ELISA), kinase inhibitors” value is listed as “suppressed”.
For `COc1cccc(-c2cc(=O)c3ccccc3o2)c1N` [PD98059], the “LPS-induced expression of IL-6 (ELISA), kinase inhibitors” value with RAW264.7 macrophages [1] is given as “not”. For the same compound, the “LPS-induced phosphorylation of STAT3” value with RAW264.7 macrophages [2] is “slightly suppressed”.
`C[S+]([O-])c1ccc(-c2nc(-c3ccncc3)c(-c3ccc(F)cc3)[nH]2)cc1` (stereo not drawn) [SB203580]: in the test on RAW264.7 macrophages [1], the “LPS-induced expression of IL-6 (ELISA), kinase inhibitors” value is “suppressed” and the “LPS-induced expression of RANTES (ELISA), kinase inhibitors” value is listed as “suppressed”. The “LPS-induced phosphorylation of STAT3” value with RAW264.7 macrophages [2] is given as “inhibited”.

For the origin of these results see patent publication US20250041282A1, “METHOD FOR TREATING INFLAMMATORY PULMONARY DISEASE” (FU JEN CATHOLIC UNIVERSITY, priority 2021, published 2025).
